Test results reported in patent publication US10662164B2, “Non-beta lactam antibiotics” (University of Notre Dame du Lac, priority 2014, dated 2020).
Values after ≈ are worked out from the molar mass of the structure shown. “Also recorded” adds a separate entry of the source. Where two headings read alike, the source gives them in different places.

Legend:
E. faecium NCTC 7171 = test: MIC determination; type: cell-based, Enterococcus faecium; conditions: for MIC: Enterococcus faecium
S. aureus ATCC 29213 = test: MIC determination; type: cell-based, Staphylococcus aureus; conditions: for antibacterial activity in words (SAR, ring A derivatives): S. aureus ATCC 29213, compounds of Schemes 3-4; for S. aureus ATCC 29213 MIC: Table 3.1, compounds of Schemes 2-4
[1] = NCTC7171, Table 3.1, compounds of Schemes 2-4, read-out: E. faecium NCTC 7171 MIC
[2] = Staphylococcus aureus, ATCC29213, Table 3.1 and SAR text, compounds of Schemes 2-4, read-out: S. aureus ATCC 29213 MIC
[3] = Table 3.1, compounds of Schemes 2-4
[4] = Staphylococcus aureus, ATCC29213, read-out: S. aureus ATCC 29213 MIC
[5] = NCTC7171, read-out: E. faecium NCTC 7171 MIC
[6] = S. aureus ATCC29213, second numbering, compounds of Scheme 6

SMILES | MIC (E. faecium NCTC 7171; [1]) [µg/mL] | MIC (S. aureus ATCC 29213; [2]) [µg/mL] | also measured
Oc1ccc(Cc2nc(-c3ccc(Oc4ccccc4)cc3)no2)cc1 [Compound 74a] | 8 (≈ 23.2 µM) |  | 
Oc1ccc(-c2nc(-c3ccc(Oc4ccccc4)cc3)no2)cc1 [Compound 57a] | 1 (≈ 3.03 µM) | 1 (≈ 3.03 µM) | 
C=CCOc1cc(N)ncc1-c1nc(-c2ccc(Oc3ccccc3)cc2)no1 [Compound 79a] | > 128 | 8 (≈ 20.7 µM) | 
Nc1c[nH]nc1-c1nc(-c2ccc(Oc3ccc(F)cc3)cc2)no1 [Compound 64c] | 32 (≈ 94.9 µM) | 16 (≈ 47.4 µM) | 
Fc1ccc(Oc2ccc(-c3noc(-c4cc[nH]c4)n3)cc2)cc1 [Compound 127c] | > 128 | > 128 | antibacterial activity in words (SAR, ring A derivatives) (S. aureus ATCC 29213): No activity
Oc1c(F)cc(-c2nc(-c3ccc(Oc4ccc(C(F)(F)F)cc4)cc3)no2)cc1F [Compound 73b] | 4 (≈ 9.21 µM) | 4 (≈ 9.21 µM) | 
O=[N+]([O-])c1c[nH]c(-c2nc(-c3ccc(Oc4ccc(F)cc4)cc3)no2)c1 [Compound 78c] | 128 (≈ 349 µM) | > 128 | antibacterial activity in words (SAR, ring A derivatives) (S. aureus ATCC 29213): No activity
Fc1ccc(Oc2ccc(-c3noc(-c4n[nH]c5ccccc45)n3)cc2)cc1 [Compound 123c] | 16 (≈ 43 µM) | > 128 | 
Cl.c1ccc(Oc2ccc(-c3noc(C4CCNCC4)n3)cc2)cc1 [Compound 128a] |  |  | E. faecium NCTC 7171 MIC (E. faecium NCTC 7171; [3]): 16 µg/mL
CCOP(=O)(OCC)c1c[nH]nc1-c1nc(-c2ccc(Oc3ccc(C(F)(F)F)cc3)cc2)no1 [Compound 111b] |  |  | MIC (S. aureus ATCC 29213; [4]): > 128 µg/mL; MIC (E. faecium NCTC 7171; [5]): > 128 µg/mL
Oc1ccc(-c2nc(-c3ccc(Oc4ccc(F)cc4)cc3)no2)cc1F [Compound 70c] | 2 (≈ 5.46 µM) | 2 (≈ 5.46 µM) | 
[O-][n+]1ccc(-c2nc(-c3ccc(Oc4ccccc4)cc3)no2)cc1 [Compound 115a] | 64 (≈ 193 µM) | > 128 | antibacterial activity in words (SAR, ring A derivatives) (S. aureus ATCC 29213): No activity
FC(F)(F)c1ccc(Oc2ccc(-c3noc(-c4ccc(Br)cc4)n3)cc2)cc1 [Compound 81b] |  | > 1000 | 
c1ccc(Oc2ccc(-c3noc(-c4ccc5[nH]ncc5c4)n3)cc2)cc1 [Compound 124a] | 64 (≈ 181 µM) | > 128 | antibacterial activity in words (SAR, ring A derivatives) (S. aureus ATCC 29213): No activity
FC(F)(F)c1ccc(Oc2ccc(-c3noc(-c4n[nH]cc4NC4CCCCC4)n3)cc2)cc1 [Compound 106b] | 128 (≈ 273 µM) | > 128 | antibacterial activity in words (SAR, ring A derivatives) (S. aureus ATCC 29213): did not extend
Oc1c(F)cc(-c2nc(-c3ccc(Oc4ccc(C(F)(F)F)cc4)cc3)no2)cc1F [Compound 71b] |  |  | S. aureus ATCC 29213 MIC (S. aureus ATCC 29213): 2 µg/mL; E. faecium NCTC 7171 MIC (E. faecium NCTC 7171; [3]): 2 µg/mL
Nc1c[nH]nc1-c1nc(-c2ccc(Oc3ccccc3)cc2)no1 [Compound 64a] |  |  | antibacterial activity in words (SAR, C/D ring derivatives) (S. aureus ATCC 29213; [6]): retained activity; MIC (S. aureus ATCC 29213; [4]): 16 µg/mL (≈ 50.1 µM); MIC (E. faecium NCTC 7171; [5]): 32 µg/mL (≈ 100 µM)
O=[N+]([O-])c1c[nH]nc1-c1nc(-c2ccc(Oc3ccc(F)cc3)cc2)no1 [Compound 63c] | 4 (≈ 10.9 µM) | 1 (≈ 2.72 µM) | 
O=[N+]([O-])c1c[nH]c(-c2nc(-c3ccc(Oc4ccc(C(F)(F)F)cc4)cc3)no2)c1 [Compound 78b] | 64 (≈ 154 µM) | 8 (≈ 19.2 µM) | antibacterial activity in words (SAR, ring A derivatives) (S. aureus ATCC 29213): retained good activity
Nc1ccc(-c2nc(-c3ccc(Oc4ccccc4)cc3)no2)cc1 [Compound 58a] |  |  | MIC (S. aureus ATCC 29213; [4]): 4 µg/mL (≈ 12.1 µM); MIC (E. faecium NCTC 7171; [5]): 2 µg/mL (≈ 6.07 µM)
Oc1nc(-c2ccc(Oc3ccccc3)cc2)no1 [Compound 112a] | > 128 | > 128 | antibacterial activity in words (SAR, ring A derivatives) (S. aureus ATCC 29213): abolishes activity
Oc1ccc(-c2nc(-c3ccc(Oc4ccc(C(F)(F)F)cc4)cc3)no2)cc1F [Compound 70b] |  |  | S. aureus ATCC 29213 MIC (S. aureus ATCC 29213): 2 µg/mL; E. faecium NCTC 7171 MIC (E. faecium NCTC 7171; [3]): 2 µg/mL
CC(C)(C)OC(=O)N1CCC(Nc2c[nH]nc2-c2nc(-c3ccc(Oc4ccc(C(F)(F)F)cc4)cc3)no2)CC1 [Compound 110b] | > 128 | > 128 | 
O=[N+]([O-])c1cc(-c2nc(-c3ccc(Oc4ccc(F)cc4)cc3)no2)cnc1O [Compound 77c] | 4 (≈ 10.1 µM) | 8 (≈ 20.3 µM) | 
COC(=O)c1ccc(-c2nc(-c3ccc(Oc4ccc(F)cc4)cc3)no2)cc1 [Compound 90c] | > 128 | > 128 | antibacterial activity in words (SAR, ring A derivatives) (S. aureus ATCC 29213): failed to show significant activity
FC(F)(F)c1ccc(Oc2ccc(-c3noc(-c4n[nH]cc4I)n3)cc2)cc1 [Compound 62b] | 32 (≈ 64.2 µM) | 2 (≈ 4.01 µM) | 

SMILES | MIC (E. faecium NCTC 7171; [1]) [µg/mL] | MIC (S. aureus ATCC 29213; [2]) [µg/mL] | also measured
Ic1c[nH]nc1-c1nc(-c2ccc(Oc3ccccc3)cc2)no1 [62a] | 32 (≈ 74.4 µM) | 1 (≈ 2.32 µM) | 
O=C(O)c1ccc(-c2nc(-c3ccc(Oc4ccc(F)cc4)cc3)no2)cc1 [Compound 89c] | 128 (≈ 340 µM) | > 128 | antibacterial activity in words (SAR, ring A derivatives) (S. aureus ATCC 29213): failed to show significant activity
Fc1ccc(Oc2ccc(-c3noc(-c4ccc5[nH]ccc5c4)n3)cc2)cc1 [Compound 75c] | 2 (≈ 5.39 µM) | 2 (≈ 5.39 µM) | 
c1ccc(Oc2ccc(-c3noc(-c4ccc5[nH]ccc5c4)n3)cc2)cc1 [Compound 75a] | 2 (≈ 5.66 µM) | 2 (≈ 5.66 µM) | 
O=c1cc(-c2nc(-c3ccc(Oc4ccc(C(F)(F)F)cc4)cc3)no2)[nH]c(=O)[nH]1 [Compound 135b] | > 128 |  | 
Nc1ccc(-c2nc(-c3ccc(Oc4ccccc4)cc3)no2)cc1F [Compound 72a] |  |  | antibacterial activity in words (SAR, C/D ring derivatives) (S. aureus ATCC 29213; [6]): inactive; MIC (S. aureus ATCC 29213; [4]): > 128 µg/mL; MIC (E. faecium NCTC 7171; [5]): > 32 µg/mL
Clc1c[nH]nc1-c1nc(-c2ccc(Oc3ccccc3)cc2)no1 [Compound 60a] |  |  | MIC (S. aureus ATCC 29213; [6]): 8 µg/mL (≈ 23.6 µM); MIC (S. aureus ATCC 29213; [4]): 1 µg/mL (≈ 2.95 µM); MIC (E. faecium NCTC 7171; [5]): > 128 µg/mL
C[Si](C)(C)C#Cc1c[nH]nc1-c1nc(-c2ccc(Oc3ccc(C(F)(F)F)cc3)cc2)no1 [Compound 103b, 3-(4-(4-Trifluoromethyl)phenoxy)phenyl)-5-(4-((trimethylsilyl)ethynyl-1H-pyrazol-3-yl)-1,2,4-oxadiazole] |  |  | S. aureus ATCC 29213 MIC (S. aureus ATCC 29213): >128 µg/mL; E. faecium NCTC 7171 MIC (E. faecium NCTC 7171; [3]): >128 µg/mL
Oc1cc(-c2nc(-c3ccc(Oc4ccccc4)cc3)no2)ccc1I [Compound 96a] | 32 (≈ 70.1 µM) | > 128 | antibacterial activity in words (SAR, ring A derivatives) (S. aureus ATCC 29213): failed to show significant activity
COc1ccc(-c2nc(-c3ccc(Oc4ccccc4)cc3)no2)cc1N [Compound 100a] | > 128 | > 128 | 
Nc1ccc(-c2nc(-c3ccc(Oc4ccc(F)cc4)cc3)no2)cc1 [Compound 58c] | > 128 | > 128 | antibacterial activity in words (SAR, ring A derivatives) (S. aureus ATCC 29213): no antibiotic activity; also recorded: inactive
Fc1ccc(Oc2ccc(-c3noc(-c4cc[nH]n4)n3)cc2)cc1 [Compound 102c] | 32 (≈ 99.3 µM) | > 128 | 
Nc1ccc(-c2nc(-c3ccc(Oc4ccc(C(F)(F)F)cc4)cc3)no2)cc1F [Compound 72b] | 2 (≈ 4.82 µM) | 2 (≈ 4.82 µM) | 
Nc1ccc(-c2nc(-c3ccc(Oc4ccccc4)cc3)no2)c(O)c1 [Compound 98a] | > 128 | > 128 | 
O=C1C[C@H](c2nc(-c3ccc(Oc4ccc(C(F)(F)F)cc4)cc3)no2)CN1 [Compound 133b] | > 128 |  | 
Oc1ccc(-c2nc(-c3ccc(Oc4ccccc4)cc3)no2)cc1F [Compound 70a] | 4 (≈ 11.5 µM) | 4 (≈ 11.5 µM) | 
CCOP(=O)(OCC)c1ccc(-c2nc(-c3ccc(Oc4ccc(F)cc4)cc3)no2)cc1 [Compound 85c] |  |  | MIC (S. aureus ATCC 29213; [4]): > 128 µg/mL; MIC (E. faecium NCTC 7171; [5]): > 128 µg/mL
FC(F)(F)c1ccc(Oc2ccc(-c3noc(-c4cc[nH]n4)n3)cc2)cc1 [Compound 102b] | 64 (≈ 172 µM) | > 128 | 
Fc1ccc(-c2nc(-c3ccc(Oc4ccccc4)cc3)no2)cc1 [Compound 80a] |  | > 1000 | 
O=C1C[C@@H](c2nc(-c3ccc(Oc4ccc(C(F)(F)F)cc4)cc3)no2)CN1 [Compound 134b] | > 128 |  | 
Oc1ccc(-c2nc(-c3ccc(OC4CCCC4)cc3)no2)cc1 [DR-03-235] |  |  | MIC S. aureus ATCC 29213 MH (S. aureus ATCC 29213; Mueller Hinton broth, Table 2.2, in µg/mL): 0.5-1
CC(=O)Nc1ccc(-c2nc(-c3ccc(Oc4ccc(C(F)(F)F)cc4)cc3)no2)cc1 [Compound 83b] |  | 256 (≈ 583 µM) | 
Fc1ccc(-c2nc(-c3ccc(Oc4ccc(C(F)(F)F)cc4)cc3)no2)cc1 [Compound 80b] |  | > 1200 | 
Cl.c1ccc(Oc2ccc(-c3noc(C4CCCN4)n3)cc2)cc1 (centres unmarked) [Compound 132a] |  |  | E. faecium NCTC 7171 MIC (E. faecium NCTC 7171; [3]): 64 µg/mL
Cl.NC(Cc1ccccc1)c1nc(-c2ccc(Oc3ccccc3)cc2)no1 (centres unmarked) [Compound 136a] |  |  | E. faecium NCTC 7171 MIC (E. faecium NCTC 7171; [3]): >128 µg/mL
